Test results: PMC8145110, “Design, Synthesis, and Antibacterial Screening of Some Novel Heteroaryl-Based Ciprofloxacin Derivatives as DNA Gyrase and Topoisomerase IV Inhibitors” (Pharmaceuticals, 2021)
Values after ≈ are worked out from the molar mass of the structure shown.

Experiments:
[1] = tested on: Candida albicans (ATCC 7102); assay: Kirby-Bauer disc diffusion, C. albicans; type: cell-based; conditions: % of fluconazole
Experimental: Furthermore, using fluconazole as a reference drug, 1–21 were tested in vitro for antifungal activity against A. flavus and C. albicans (Table 1).
(§1) The cultures used were collected from the Cairo University’s Microanalytical Centre, Faculty of Science. An updated Kirby-Bauer disc diffusion method was applied for antimicrobial activities of the tests 1–21 compounds [32, 33, 34, 35]. See Appendix A.
The cultures used were collected from the Cairo University’s Microanalytical Centre, Faculty of Science. An updated Kirby-Bauer disc diffusion method was applied for the antimicrobial activities of the tests for compounds 1–21 [28]. […] Plates inoculated with filamentous fungi as Aspergillus flavus were incubated at 25 °C for 48 h; Gram positive bacteria as Staphylococcus aureus (ATCC 12600, Microanalytical center, Cairo, Egypt), Bacillus subtilis (ATCC 6051); Gram negative bacteria as Escherichia coli (ATCC 11775), Pseudomonas aeuroginosa (ATCC 10145) were incubated at 35–37 °C for 24–48 h and yeast as Candida albicans (ATCC 7102) was incubated at 30 °C for 24–48 h and, then the diameters of the inhibition zones were measured in millimeters. […] For the disc diffusion, the zone diameters were measured with slipping calipers of the National Committee for Clinical Laboratory Standards, and the results are given in Table 1. […]

[2] = tested on: B. subtilis; assay: MIC, two-fold serial dilution, B. subtilis; type: cell-based; conditions: Bacillus subtilis; read-out: Minimum Inhibitory Concentration (MIC), B. subtilis
Experimental: (§2) Table 2, using the reference drug ciprofloxacin, was presented with the MICs (minimal inhibitory concentrations) of these compounds against tested bacteria. […] The nature of aromatic substitution in the oxadiazole moiety tends to be correlated with higher antibacterial effects and the activity increased with (Ar) in the order of 2-pyridyl ≥ 3-pyridyl > 4-pyridyl > 2-Cl-Ph > 2-naphthyl.
(§3) On 96-well microtiter plates and […] of fresh bacterial culture of a single McFarland unit overnight, a double serial dilution of each compound […] in sterile standard saline was prepared for every single source well. Ciprofloxacin antibiotic (5 mg/mL^−1) and normal saline were included as standard references in each assay (see Appendix A).
(§4) In 96-well microtiter plates and […] of fresh bacterial culture of a single McFarland unit overnight, a double serial dilution of each compound […] in sterile standard saline was prepared for every single source well. Ciprofloxacin antibiotic (5 mg/mL^−1) and normal saline were included as standard reference in each assay. The plates were incubated at 37 °C overnight. As an indicator of bacterial growth, […] of p-iodonitrotetrazolium violet (INT) was added to each well and incubated at 37 °C for 30 min. […] The colorless tetrazolidium salt acts as an electron accepter and is reduced to a red colored formazan product by biological activity organisms. Where bacterial growth was inhibited, the solution in the well remained clear after incubation with INT.

[3] = tested on: S. aureus; assay: MIC, two-fold serial dilution, S. aureus; type: cell-based, Staphylococcus aureus; conditions: Staphylococcus aureus; read-out: Minimum Inhibitory Concentration (MIC), S. aureus
Experimental: as §2, §3, §4

[4] = tested on: E. coli; assay: MIC, two-fold serial dilution, E. coli; type: cell-based; conditions: Escherichia coli; read-out: Minimum Inhibitory Concentration (MIC), E. coli
Experimental: as §2, §3, §4

[5] = tested on: P. aeruginosa; assay: MIC, two-fold serial dilution, P. aeruginosa; type: cell-based; conditions: Pseudomonas aeruginosa; read-out: Minimum Inhibitory Concentration (MIC), P. aeruginosa
Experimental: as §2, §3, §4

[6] = target: T1, E. coli DNA gyrase (Escherichia coli, UniProt P0AES4+P0AES6); assay: E. coli DNA gyrase assay; type: biochemical
T1 construct: purchased Inspiralis
T1 sequence (P0AES4 whole entry, one chain of several): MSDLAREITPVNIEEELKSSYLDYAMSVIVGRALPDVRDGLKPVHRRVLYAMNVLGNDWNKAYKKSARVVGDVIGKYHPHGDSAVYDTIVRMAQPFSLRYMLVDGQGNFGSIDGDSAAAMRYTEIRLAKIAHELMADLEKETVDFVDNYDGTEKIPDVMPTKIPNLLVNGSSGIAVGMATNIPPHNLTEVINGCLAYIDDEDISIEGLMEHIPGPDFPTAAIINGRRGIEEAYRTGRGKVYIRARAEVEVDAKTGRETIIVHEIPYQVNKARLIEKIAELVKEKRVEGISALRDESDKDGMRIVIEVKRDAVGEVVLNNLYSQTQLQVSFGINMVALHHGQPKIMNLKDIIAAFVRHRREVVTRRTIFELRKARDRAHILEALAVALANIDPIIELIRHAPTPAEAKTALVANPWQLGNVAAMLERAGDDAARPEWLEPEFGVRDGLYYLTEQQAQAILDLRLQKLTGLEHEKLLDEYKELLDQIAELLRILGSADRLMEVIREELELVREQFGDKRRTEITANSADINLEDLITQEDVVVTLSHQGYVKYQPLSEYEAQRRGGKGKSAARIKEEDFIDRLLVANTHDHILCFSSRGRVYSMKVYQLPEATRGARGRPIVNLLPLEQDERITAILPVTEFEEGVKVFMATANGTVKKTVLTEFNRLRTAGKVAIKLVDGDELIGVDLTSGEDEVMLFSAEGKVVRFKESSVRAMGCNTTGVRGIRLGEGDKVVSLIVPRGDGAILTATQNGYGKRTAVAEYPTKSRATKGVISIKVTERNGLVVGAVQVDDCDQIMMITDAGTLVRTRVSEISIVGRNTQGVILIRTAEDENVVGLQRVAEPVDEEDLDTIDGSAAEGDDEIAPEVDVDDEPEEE
Experimental: (§5) IC50 assay determination was carried out in accordance with the procedures previously stated (see Appendix A).
(§6) Inhibitory activities were determined in an assay from Inspiralis on streptavidin-coated 96-well microtiter plates from Thermo scientific Pierce. […] After washing off the unbound oligonucleotide, the enzyme test was performed. […] After that, the TF buffer (50 mM NaOAc with pH 5.0, 50 mM NaCl and 50 mM MgCl2) was added to terminate the enzymatic reaction. After additional incubation for 30 min at rt, during which biotin-oligonucleotide-plasmid triplex was 19 formed, the unbound plasmid was washed off using TF buffer and SybrGOLD in T10 buffer (10 mM Tris HCl with pH 8.0 and 1 mM EDTA) was added. […] Initial screening was done at 100 or 10 μM concentration of inhibitors. […] GraphPad Prism software was used to calculate the IC50 values. The result is given as the average value of three independent measurements. […] Determination of inhibitory activities on E. coli and S. aureus Topoisomerase IV IC50 values were determined in an assay from Inspiralis on streptavidin-coated 96-well microtiter plates from Thermo scientific Pierce. […] After washing off the unbound oligonucleotide, the enzyme test was performed. The reaction volume of 30 μL in buffer (40 mM HEPES KOH with pH 7.6, 100 mM potassium glutamate, 10 mM magnesium acetate, 10 mM DTT, 1 mM ATP, 0.05 mg/mL albumin) contained 1.5 U of topoisomerase IV from E. coli or S. aureus, 0.75 μg of pNO1 supercoiled plasmid, and 3 μL solution of the inhibitor in DMSO (10%) and Tween 20 (0.008%). […] After additional incubation for 30 min at rt, during which triplex (biotin-oligonucleotide-plasmid) was formed, the unbound plasmid was washed off using TF buffer and SybrGOLD in T10 buffer (10 mM Tris HCl with pH 8.0 and 1 mM EDTA) was added. […] Initial screening was done at 100 or 10 μM concentration of inhibitors. […] GraphPad Prism software was used to calculate the IC50 values. The result is given as the average value of three independent measurements.

[7] = target: T2, E. coli topoisomerase IV (Escherichia coli, UniProt P0AFI2+P20083); assay: E. coli topoisomerase IV assay; type: biochemical
T2 construct: purchased Inspiralis
T2 sequence (P0AFI2 whole entry): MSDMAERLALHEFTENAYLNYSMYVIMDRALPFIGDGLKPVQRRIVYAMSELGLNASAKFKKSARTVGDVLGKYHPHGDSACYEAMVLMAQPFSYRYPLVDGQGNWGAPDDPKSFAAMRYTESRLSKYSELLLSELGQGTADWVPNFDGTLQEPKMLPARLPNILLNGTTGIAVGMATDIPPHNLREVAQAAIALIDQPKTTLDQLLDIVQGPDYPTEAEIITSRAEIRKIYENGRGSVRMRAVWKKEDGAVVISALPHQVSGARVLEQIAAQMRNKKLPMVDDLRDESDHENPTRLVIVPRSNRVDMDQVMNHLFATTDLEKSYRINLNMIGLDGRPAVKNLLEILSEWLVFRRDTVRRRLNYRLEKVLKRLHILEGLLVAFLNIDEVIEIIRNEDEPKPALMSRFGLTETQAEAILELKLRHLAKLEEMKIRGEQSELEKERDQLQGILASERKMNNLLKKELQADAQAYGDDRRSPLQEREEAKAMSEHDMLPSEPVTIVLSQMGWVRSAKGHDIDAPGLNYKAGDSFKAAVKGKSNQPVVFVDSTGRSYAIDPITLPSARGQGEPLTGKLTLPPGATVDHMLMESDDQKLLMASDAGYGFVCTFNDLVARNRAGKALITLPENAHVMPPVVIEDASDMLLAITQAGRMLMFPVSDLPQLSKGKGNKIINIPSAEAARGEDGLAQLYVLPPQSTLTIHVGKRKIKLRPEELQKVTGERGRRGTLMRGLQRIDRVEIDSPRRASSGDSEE
T2 sequence (P20083 whole entry): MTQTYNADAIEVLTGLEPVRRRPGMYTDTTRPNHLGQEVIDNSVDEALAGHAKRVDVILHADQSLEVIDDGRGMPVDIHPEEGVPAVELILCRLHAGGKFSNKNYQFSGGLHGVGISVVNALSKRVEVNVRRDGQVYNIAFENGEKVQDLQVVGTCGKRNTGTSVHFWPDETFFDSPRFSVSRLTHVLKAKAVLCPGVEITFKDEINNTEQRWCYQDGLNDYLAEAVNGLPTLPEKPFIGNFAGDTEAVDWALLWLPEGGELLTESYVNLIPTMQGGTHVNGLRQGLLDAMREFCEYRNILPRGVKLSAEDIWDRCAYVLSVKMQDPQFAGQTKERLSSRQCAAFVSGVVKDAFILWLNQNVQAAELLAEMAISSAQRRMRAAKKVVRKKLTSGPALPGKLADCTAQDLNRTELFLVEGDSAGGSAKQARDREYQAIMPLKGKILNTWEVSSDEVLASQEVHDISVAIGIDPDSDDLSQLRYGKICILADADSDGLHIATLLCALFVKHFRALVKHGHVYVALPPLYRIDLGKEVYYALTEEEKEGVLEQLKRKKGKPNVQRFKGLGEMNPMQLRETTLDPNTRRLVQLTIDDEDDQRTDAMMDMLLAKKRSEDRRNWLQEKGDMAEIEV
Experimental: as §5, §6

[8] = Cell viability assay (MTT); type: cell-based; set-up: dose or concentration left out as unconfirmed; conditions: human, MCF-10A mammary gland epithelial cells, four days
Experimental: A human mammary gland epithelial cell line (MCF-10A) was used to conduct a cell viability assay. Compounds 2–6 were incubated with MCF-10A cells for four days, and the viability of the cells was determined using the 3-(4,5-dimethylthiazol-2-yl)-2,5-diphenyltetrazolium bromide (MTT) assay. All compounds had no cytotoxic effects, and the viability of the cells was greater than 85% for most of the compounds examined […], as shown in Table 4.
MTT Assay was performed to investigate the effect of compounds 2–6 on the viability of mammary epithelial cells (MCF-10A) (see Appendix A).

[9] = tested on: Staphylococcus aureus (ATCC 12600); assay: Kirby-Bauer disc diffusion, S. aureus; type: cell-based; conditions: % of ciprofloxacin
Experimental: (§7) An updated Kirby-Bauer disc diffusion method was used to assess the antimicrobial activity of the tested samples [32, 33, 34, 35]. Using ciprofloxacin as a reference drug, synthetic compounds 1–21 were tested in vitro for antibacterial activity against S. aureus and B. subtilis as Gram-positive strains and E. coli and P. aeruginosa as Gram-negative strains. […]. […].
as §1
The cultures used were collected from the Cairo University’s Microanalytical Centre, Faculty of Science. An updated Kirby-Bauer disc diffusion method was applied for the antimicrobial activities of the tests for compounds 1–21 [28]. Shortly after, 10 mL of fresh medium was grown to 100 μL bacteria/food until a count of 10^8 cells/mL or 10^5 cells/mL was achieved. One hundred μL microbial suspension was spread over agar plates that suited the broth in which it was held. The selected colonies of each organism that may play a pathogenic function should be from the primary agar plates and tested by the disc diffusion method for susceptibility. Plates inoculated with filamentous fungi as Aspergillus flavus were incubated at 25 °C for 48 h; Gram positive bacteria as Staphylococcus aureus (ATCC 12600, Microanalytical center, Cairo, Egypt), Bacillus subtilis (ATCC 6051); Gram negative bacteria as Escherichia coli (ATCC 11775), Pseudomonas aeuroginosa (ATCC 10145) were incubated at 35–37 °C for 24–48 h and yeast as Candida albicans (ATCC 7102) was incubated at 30 °C for 24–48 h and, then the diameters of the inhibition zones were measured in millimeters. Standard discs of ciprofloxacin (antibacterial agent), fluconazole (antifungal agent) served as positive controls for antimicrobial activity, but filter discs impregnated with 10 µL of solvent (distilled water, chloroform, DMSO) were used as a negative control. Blank paper disks (Schleicher and Schuell, Cytiva, Spain) with a diameter of 8.0 mm were impregnated with 10 µL of tested concentration of the stock solutions. When a filter paper disc impregnated with a tested chemical is placed on agar, the chemical will diffuse from the disc into the agar. This diffusion will place the chemical in the agar only around the disc. The solubility of the chemical and its molecular size will determine the size of the area of chemical infiltration around the disc. […] For the disc diffusion, the zone diameters were measured with slipping calipers of the National Committee for Clinical Laboratory Standards, and the results are given in Table 1. […]

[10] = tested on: Escherichia coli (ATCC 11775); assay: Kirby-Bauer disc diffusion, E. coli; type: cell-based; conditions: % of ciprofloxacin
Experimental: as §7, §1
The cultures used were collected from the Cairo University’s Microanalytical Centre, Faculty of Science. An updated Kirby-Bauer disc diffusion method was applied for the antimicrobial activities of the tests for compounds 1–21 [28]. Shortly after, 10 mL of fresh medium was grown to 100 μL bacteria/food until a count of 10^8 cells/mL or 10^5 cells/mL was achieved. One hundred μL microbial suspension was spread over agar plates that suited the broth in which it was held. The selected colonies of each organism that may play a pathogenic function should be from the primary agar plates and tested by the disc diffusion method for susceptibility. Plates inoculated with filamentous fungi as Aspergillus flavus were incubated at 25 °C for 48 h; Gram positive bacteria as Staphylococcus aureus (ATCC 12600, Microanalytical center, Cairo, Egypt), Bacillus subtilis (ATCC 6051); Gram negative bacteria as Escherichia coli (ATCC 11775), Pseudomonas aeuroginosa (ATCC 10145) were incubated at 35–37 °C for 24–48 h and yeast as Candida albicans (ATCC 7102) was incubated at 30 °C for 24–48 h and, then the diameters of the inhibition zones were measured in millimeters. […] For the disc diffusion, the zone diameters were measured with slipping calipers of the National Committee for Clinical Laboratory Standards, and the results are given in Table 1. […]

[11] = tested on: Bacillus subtilis (ATCC 6051); assay: Kirby-Bauer disc diffusion, B. subtilis; type: cell-based; conditions: % of ciprofloxacin
Experimental: as §7, §1
(§8) The cultures used were collected from the Cairo University’s Microanalytical Centre, Faculty of Science. An updated Kirby-Bauer disc diffusion method was applied for the antimicrobial activities of the tests for compounds 1–21 [28]. […] Plates inoculated with filamentous fungi as Aspergillus flavus were incubated at 25 °C for 48 h; Gram positive bacteria as Staphylococcus aureus (ATCC 12600, Microanalytical center, Cairo, Egypt), Bacillus subtilis (ATCC 6051); Gram negative bacteria as Escherichia coli (ATCC 11775), Pseudomonas aeuroginosa (ATCC 10145) were incubated at 35–37 °C for 24–48 h and yeast as Candida albicans (ATCC 7102) was incubated at 30 °C for 24–48 h and, then the diameters of the inhibition zones were measured in millimeters. […]

[12] = tested on: Pseudomonas aeuroginosa (ATCC 10145); assay: Kirby-Bauer disc diffusion, P. aeruginosa; type: cell-based, Pseudomonas aeruginosa; conditions: % of ciprofloxacin
Experimental: as §7, §1, §8

[13] = tested on: most of the pathogens tested; set-up: method as in doi:10.1002/jhet.2760; conditions: cited from earlier work
[14] = target: S. aureus topoisomerase IV; set-up: method as in PMID 29206345; conditions: value given in method; read-out: IC50 of internal standard, S. aureus topoisomerase IV; cited from earlier work

SMILES	antifungal activity against C. albicans relative to fluconazole [1] [%]	MIC [2] [µg/mL]	MIC [3] [µg/mL]	MIC [4] [µg/mL]	MIC [5] [µg/mL]	IC50 [6] [nM]	remaining activity at 1 µM ([7]; read-out: RA (%), residual activity of E. coli Topo IV) [%]	viability at 4 days [8] [%]	melting point [°C]	antibacterial activity relative to ciprofloxacin, S. aureus [9]	antibacterial activity relative to ciprofloxacin, E. coli [10]	IC50 [7] [nM]	antibacterial activity relative to ciprofloxacin, B. subtilis [11] [%]	antibacterial activity relative to ciprofloxacin, P. aeruginosa [12] [%]	times more potent than ampicillin [13] [times]	IC50 [14] [nM]
O=C(O)c1cn(C2CC2)c2cc(N3CCN(Cn4nc(-c5ccc6ccccc6c5)oc4=S)CC3)c(F)cc2c1=O [Compound 3, 1-Cyclopropyl-6-fluoro-7-[4-(5-naphthalen-2-yl-2-thioxo-[1,3,4]oxadiazol-3-ylmethyl)-piperazin-1-yl]-4-oxo-1,4-dihydro-quinoline-3-carboxylic acid]	33	0.125 (≈ 0.219 µM)	0.125 (≈ 0.219 µM)	0.125 (≈ 0.219 µM)	0.05 (≈ 0.0875 µM)	86 ± 9	58	85	244							
O=C(O)c1cn(C2CC2)c2cc(N3CCN(Cn4nc(-c5ccccn5)oc4=S)CC3)c(F)cc2c1=O [Compound 4, 1-Cyclopropyl-6-fluoro-4-oxo-7-[4-(5-pyridin-2-yl-2-thioxo-[1,3,4]oxadiazol-3-yl-methyl)-piperazin-1-yl]-1,4-dihydro-quinoline-3-carboxylic acid]		0.125 (≈ 0.239 µM)	0.035 (≈ 0.067 µM)	0.062 (≈ 0.119 µM)	0.062 (≈ 0.119 µM)	42 ± 7		89	218	equipotent	equipotent	1470 ± 200				
O=C(O)c1cn(C2CC2)c2cc(N3CCN(Cn4nc(-c5cccnc5)oc4=S)CC3)c(F)cc2c1=O [Compound 5, 1-Cyclopropyl-6-fluoro-4-oxo-7-[4-(5-pyridin-3-yl-2-thioxo-[1,3,4]oxadiazol-3-yl-methyl)-piperazin-1-yl]-1,4-dihydro-quinoline-3-carboxylic acid]		0.125 (≈ 0.239 µM)	0.035 (≈ 0.067 µM)	0.062 (≈ 0.119 µM)	0.125 (≈ 0.239 µM)	92 ± 9		91	230	equipotent	equipotent	6800 ± 200				
O=C(O)c1cn(C2CC2)c2cc(N3CCN(Cn4nc(-c5ccncc5)oc4=S)CC3)c(F)cc2c1=O [Compound 6, 1-Cyclopropyl-6-fluoro-4-oxo-7-[4-(5-pyridin-4-yl-2-thioxo-[1,3,4]oxadiazol-3-yl-methyl)-piperazin-1-yl]-1,4-dihydro-quinoline-3-carboxylic acid]		0.125 (≈ 0.239 µM)	0.031 (≈ 0.0593 µM)	0.125 (≈ 0.239 µM)	0.125 (≈ 0.239 µM)	180 ± 20		87		120%		8920 ± 200				
O=C(O)c1cn(C2CC2)c2cc(N3CCN(CN4C(=O)SC(=Cc5ccccc5)C4=O)CC3)c(F)cc2c1=O [Compound 16, 7-[4-(5-Benzylidene-2,4-dioxo-thiazolidin-3-ylmethyl)-piperazin-1-yl]-1-cyclo-propyl-6-fluoro-4-oxo-1,4-dihydro-quinoline-3-carboxylic acid]									237	85%	93%		93	93		
O=C(O)c1cn(C2CC2)c2cc(N3CCN(Cn4nc(CN5CCSCC5)oc4=S)CC3)c(F)cc2c1=O [I]															> 41	
CO[C@@H]1[C@@H](OC(N)=O)[C@@H](O)[C@H](Oc2ccc3c(O)c(NC(=O)c4ccc(O)c(CC=C(C)C)c4)c(=O)oc3c2C)OC1(C)C [Novobiocin]																26700
